Data from patent US20080096950A1, “Compounds Useful In Therapy” (priority 2006, published 2008).

Each compound was assayed against T1, Progesterone receptor (PR) (Homo sapiens, UniProt P06401) (assay: In vitro functional assay for progesterone receptor (PR) antagonists: inhibition of progesterone-induced alkaline phosphatase expression in T47D cells). Conditions: antagonist format; T47D human mammary carcinoma cells; alkaline phosphatase inhibition vs 5 nM progesterone.
T1 construct: endogenous in cells; host or cells: T47D human breast mammary carcinoma cells
T1 sequence (P06401 1-933): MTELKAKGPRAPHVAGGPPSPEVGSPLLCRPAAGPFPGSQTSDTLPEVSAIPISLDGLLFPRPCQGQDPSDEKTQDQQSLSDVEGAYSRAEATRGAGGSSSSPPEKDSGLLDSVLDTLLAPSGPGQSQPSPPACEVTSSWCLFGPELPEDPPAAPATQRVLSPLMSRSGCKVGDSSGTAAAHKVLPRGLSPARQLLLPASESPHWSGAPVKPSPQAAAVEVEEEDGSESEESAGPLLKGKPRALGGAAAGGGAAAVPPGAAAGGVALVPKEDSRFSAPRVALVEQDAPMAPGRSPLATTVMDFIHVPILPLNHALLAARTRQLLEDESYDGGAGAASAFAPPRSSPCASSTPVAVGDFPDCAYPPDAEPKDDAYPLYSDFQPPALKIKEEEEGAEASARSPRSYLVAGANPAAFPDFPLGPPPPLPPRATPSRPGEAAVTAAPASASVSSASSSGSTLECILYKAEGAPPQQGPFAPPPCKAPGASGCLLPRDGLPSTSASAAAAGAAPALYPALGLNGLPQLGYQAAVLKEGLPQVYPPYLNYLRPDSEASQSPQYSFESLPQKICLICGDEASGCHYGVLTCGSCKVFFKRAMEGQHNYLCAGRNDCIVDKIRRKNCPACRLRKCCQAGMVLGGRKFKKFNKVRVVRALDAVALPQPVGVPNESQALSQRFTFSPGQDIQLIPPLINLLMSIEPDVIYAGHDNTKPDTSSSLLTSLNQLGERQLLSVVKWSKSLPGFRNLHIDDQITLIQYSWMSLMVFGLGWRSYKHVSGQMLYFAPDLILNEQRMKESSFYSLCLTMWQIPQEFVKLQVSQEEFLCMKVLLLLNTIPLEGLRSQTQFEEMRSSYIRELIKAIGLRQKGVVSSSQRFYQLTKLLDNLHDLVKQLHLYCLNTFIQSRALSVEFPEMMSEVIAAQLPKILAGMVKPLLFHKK
Assay type: cell-based
Text: 1.0 In Vitro Functional Assay for Progesterone Receptor (PR) Antagonists, Agonists and Modulators
The assay for PR antagonism takes advantage of the extensively reported modulation of alkaline phosphatase (AP) expression in human breast T47D mammary carcinoma cells {Beck, et al., D. P. (1993). The progesterone antagonist RU486 acquires agonist activity upon stimulation of cAMP signalling pathways. Proc Natl Acad Sci U S A 90, 4441-4445; Fensome, et al. (2002). New progesterone receptor antagonists: 3,3-disubstituted-5-aryloxindoles. Bioorg. Med. Chem. Lett., 12, 3487-3490; Zhang et al., (2002a). 6-Aryl-1,4-dihydro-benzo d 1,3 oxazin-2-ones: a novel class of potent, selective, and orally active nonsteroidal progesterone receptor antagonists. J. Med. Chem., 45, 4379-4382; Zhang et al., (2003). Novel 6-aryl-1,4-dihydrobenzo d oxazine-2-thiones as potent, selective, and orally active nonsteroidal progesterone receptor agonists. Bioorg. Med. Chem. Lett., 13, 1313-1316; Zhang et al., (2002b). Potent nonsteroidal progesterone receptor agonists: synthesis and SAR study of 6-aryl benzoxazines. Bioorg. Med. Chem. Lett., 12, 787-790; Zhang, Z. et al., (2000). In vitro characterization of trimegestone: a new potent and selective progestin. Steroids 65, 637-643.}. […] In the absence of progesterone any agonist activity is also observed as an induction of AP activity. By running the assay in two formats (± progesterone (P4)), compounds behaving as PR antagonists, agonists, partial agonists or modulators with mixed agonist/antagonist activity can be identified.
Briefly, T47D cells are grown by propagating in DMEM with phenol red+10% FCS+2 mM Glutamine at 37° C./5% CO2. At 70-80% confluence, the media is exchanged for phenol red free DMEM+5% CS-FCS (Assay media). Cells are incubated overnight in assay media then harvested and frozen in assay media containing 10% DMSO at 1.5e7 cells/mL in 2 mL aliquots using a Planer and immediately stored in liquid nitrogen. V1als are removed from liquid nitrogen storage and immediately thawed in a water bath at 37° C. The cell suspension is added dropwise to 20 mL of assay media, then the tube centrifuged at 1000 rpm for 4 minutes, the supernatant is discarded and the pellet re-suspended in 20 mL assay media. T47D cells are then plated at 8750 cells/well in 35 μL assay media in sufficient white solid 384 well TC plates for the assay. For the agonist format assay a further 10 μL of assay media is added to each well. These plates are then cultured for 3-6 hours at 37° C./5% CO2 before compound addition.
Compounds are prepared by in 100% DMSO, half log concentrations from 4 mM in 384 well plates 5 μL/well (referred to here as ‘grandmother plates’). Progesterone is 100 μM made up in ethanol and PBS (i.e. add 1 mL ethanol to progesterone initially to help dissolving) and stored in 0.5-1 mL aliquots at −20° C.
Using a multidrop (Thermolabsystems), 60 μL/well of buffer is added to a 384 well plate—this will be the ‘mother plate’. Add 45 μLwell buffer to grandmother plate using the multidrop (=400 μM 10% DMSO dilution). Mixed and spun to remove air bubbles.
20 μL is taken from the grandmother plate (400 μM 10% DMSO) and added to the mother plate (=100 μM 2.5% DMSO). Mixed and spun to remove air bubbles
The PlateMate Plus was used to add 5 μL MAX/MIN to cell plates
Then 5 μL compounds are added from the mother plate(after removing max/min Platemate tips: columns 1 and 24)
25 nM progesterone in assay media is prepared from 100 μM stock (12.5 μL progesterone/50 mL media), from which 10 μL per well is transferred to the assay plate using the Platemate Plus (already containing cells & compound).
The cell plates are incubated @ 37° C., 5% CO2 overnight (at least 16 hours). […]

**Q.** With `Cc1cc(Oc2c(C3CC3)nn(C3CS(=O)(=O)C3)c2C)cc(C)c1C#N` [Example 10, 4-(3-Cyclopropyl-5-methyl-1-(1,1-dioxo-thietan-3-yl)-1H-pyrazol-4-yloxy)-2,6-dimethyl-benzonitrile] as the compound, how does the IC50 read?
**A.** 27.6 nM

**Q.** `Cc1cc(Oc2c(C3CC3)nn(C3CCS(=O)(=O)C3)c2C2CC2)cc(C)c1C#N` (single isomer, unassigned) [Example 8, 4-[3,5-Dicyclopropyl-1-(1,1-dioxo-tetrahydro-1λ^6-thiophen-3-yl)-1H-pyrazol-4-yloxy]-2,6-dimethyl-benzonitrile] was tested. Which IC50 did it give?
**A.** 33.8 nM

**Q.** Which IC50 does the source give for `Cc1cc(Oc2c(C3CC3)nn(C3CS(=O)(=O)C3)c2C2CC2)cc(C)c1C#N` [Example 2, 4-[3,5-Dicyclopropyl-1-(1,1-dioxo-thietan-3-yl)-1H-pyrazol-4-yloxy]-2,6-dimethyl-benzonitrile] here?
**A.** 14.7 nM

**Q.** With `Cc1cc(Oc2c(C3CCC3)nn(C3CCS(=O)(=O)C3)c2C)cc(C)c1C#N` (racemic) [Example 13, rac-4-[3-Cyclobutyl-1-(1,1-dioxo-tetrahydro-1λ^6-thiophen-3-yl)-5-methyl-1H-pyrazol-4-yloxy]-2,6-dimethyl-benzonitrile] as the compound, how does the IC50 read?
**A.** 202 nM

**Q.** How did the IC50 turn out when `Cc1cc(Oc2c(C)nn(C3CS(=O)(=O)C3)c2C2CC2)cc(C)c1C#N` [Example 11, 4-(3-Methyl-5-cyclopropyl-1-(1,1-dioxo-thietan-3-yl)-1H-pyrazol-4-yloxy)-2,6-dimethyl-benzonitrile] was run?
**A.** 50.4 nM

**Q.** For `Cc1cc(Oc2c(C)nn(C3CCS(=O)(=O)C3)c2C2CCC2)cc(C)c1C#N` (racemic) [Example 12, rac-4-[5-Cyclobutyl-1-(1,1-dioxo-tetrahydro-1λ^6-thiophen-3-yl)-3-methyl-1H-pyrazol-4-yloxy]-2,6-dimethyl-benzonitrile], which IC50 is on record?
**A.** 1490 nM

**Q.** With `Cc1cc(Oc2c(C3CC3)nn(C3CCS(=O)(=O)CC3)c2C2CC2)cc(C)c1C#N` [Example 5, 4-[3,5-Dicyclopropyl-1-(1,1-dioxo-hexahydro-1 λ^6-thiopyran-4-yl)-1H-pyrazol-4-yloxy]-2,6-dimethyl-benzonitrile] as the compound, how does the IC50 read?
**A.** 91.3 nM

**Q.** How did the IC50 turn out when `Cc1cc(Oc2c(C3CC3)nn(C3CCS(=O)(=O)C3)c2C2CC2)cc(C)c1C#N` (single isomer, unassigned) [Example 9, 4-[3,5-Dicyclopropyl-1-(1,1-dioxo-tetrahydro-1λ^6*-thiophen-3-yl)-1H-pyrazol-4-yloxy]-2,6-dimethyl-benzonitrile] was run?
**A.** 25.9 nM

**Q.** For `Cc1cc(Oc2c(C3CC3)nn(C3CS(=O)(=O)C3)c2Cl)cc(C)c1C#N` [Example 20, 4-[5-Chloro-3-cyclopropyl-1-(1,1-dioxo-1λ^6-thietan-3-yl)-1H-pyrazol-4-yloxy]-2,6-dimethyl-benzonitrile], which IC50 is on record?
**A.** 22 nM

**Q.** How did the IC50 turn out when `Cc1cc(Oc2c(C3CC3)nn(C3CCOC3)c2C2CC2)cc(C)c1C#N` (stereo not drawn) [Example 3, 4-[3,5-Dicyclopropyl-1-(tetrahydro-furan-3-yl)-1 H-pyrazol-4-yloxy]-2,6-dimethyl-benzonitrile] was run?
**A.** 67.4 nM

**Q.** How did the IC50 turn out when `Cc1cc(Oc2c(C)nn(C3CCS(=O)(=O)C3)c2C2CC2)cc(C)c1C#N` (racemic) [Example 14, rac-4-[5-Cyclopropyl-1-(1,1-dioxo-tetrahydro-1λ^6-thiophen-3-yl)-3-methyl-1H-pyrazol-4-yloxy]-2,6-dimethyl-benzonitrile] was run?
**A.** 133 nM

**Q.** `Cc1cc(Oc2c(C3CC3)nn(C3CCOCC3)c2C2CC2)cc(C)c1C#N` [Example 6, 4-[3,5-Dicyclopropyl-1-(tetrahydro-pyran-4-yl)-1H-pyrazol-4-yloxy]-2,6-dimethyl-benzonitrile] was tested. Which IC50 did it give?
**A.** 56.3 nM

**Q.** Which IC50 does the source give for `Cc1cc(Oc2c(Cl)nn(C3CS(=O)(=O)C3)c2C2CC2)cc(C)c1C#N` [Example 21, 4-[3-Chloro-5-cyclopropyl-1-(1,1-dioxo-1λ^6-thietan-3-yl)-1H-pyrazol-4-yloxy]-2,6-dimethyl-benzonitrile] here?
**A.** 108 nM

**Q.** `Cc1cc(Oc2c(C3CC3)nn(C3CCS(=O)(=O)C3)c2C2CC2)cc(C)c1C#N` (racemic) [Example 7, rac-4-[3,5-Dicyclopropyl-1-(1,1-dioxo-tetrahydro-1λ^6-thiophen-3-yl)-1H-pyrazol-4-yloxy]-2,6-dimethyl-benzonitrile] was tested. Which IC50 did it give?
**A.** 13.8 nM

**Q.** Which IC50 does the source give for `Cc1cc(Oc2c(C3CC3)nn(C3COC3)c2C2CC2)cc(C)c1C#N` [Example 1, 4-(3,5-Dicyclopropyl-1-oxetan-3-yl-1H-pyrazol-4-yloxy)-2,6-dimethyl-benzonitrile] here?
**A.** 82.6 nM
